Laboratory results: ChEMBL document CHEMBL1201862, “PubChem BioAssay data set” (2004)
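The compound was tested at five concentrations on cells cultured in 96-well plates, with a 48-hour exposure period. GI50 marks 50% less growth.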 Active and inactive are the calls of the source. Rule as the data show it: active = GI50 up to about 1.1 µM and inactive = higher.

How the values were obtained:
Assay in all cases: NCI anticancer screen, dose series, 48 h
786-0 = test system: 786-0
A549 = test system: A549
CCRF-CEM = test system: CCRF-CEM
HCC 2998 = test system: HCC 2998
HOP-92 = test system: HOP-92
HT-29 = test system: HT-29
LOX IMVI = test system: LOX IMVI
M14 = test system: M14
Malme-3M = test system: Malme-3M
NCI-H226 = test system: NCI-H226
NCI-H460 = test system: NCI-H460
OVCAR-4 = test system: OVCAR-4
RPMI-8226 = test system: RPMI-8226
SK-MEL-5 = test system: SK-MEL-5
SK-OV-3 = test system: SK-OV-3
SNB-19 = test system: SNB-19
SR = test system: SR
SW-620 = test system: SW-620
U-251 = test system: U-251
PC-3 = test system: PC-3

Measured: GI50

CC(=O)OCC1OC(OC2C(CSC3OC(COC(C)=O)C(OC(C)=O)C(OC(C)=O)C3OC(C)=O)OC(OC(C)=O)C(OC(C)=O)C2OC(C)=O)C(OC(C)=O)C(OC(C)=O)C1OC(C)=O (centres undefined)
inactive: 786-0 > 100 µM | A549 > 100 µM | CCRF-CEM > 100 µM | HCC 2998 > 100 µM | HOP-92 > 100 µM | HT-29 > 100 µM | LOX IMVI > 100 µM | M14 > 100 µM | Malme-3M > 100 µM | NCI-H226 47.5 µM | NCI-H460 > 100 µM | OVCAR-4 > 100 µM | RPMI-8226 > 100 µM | SK-MEL-5 > 100 µM | SK-OV-3 > 100 µM | SNB-19 > 100 µM | SR > 100 µM | SW-620 > 100 µM | U-251 > 100 µM

CCCCCCCCCCCCCCCCCCNc1ccn(C2OC(CO)C(OP(=O)(O)OCC(O)COP(=O)(O)OCC3OC(n4cc(F)c(NCCCCCCCCCCCCCCCCCC)nc4=O)CC3O)C2O)c(=O)n1 (centres undefined)
inactive: 786-0 > 50 µM | A549 > 50 µM | HCC 2998 > 50 µM | HOP-92 > 50 µM | HT-29 > 50 µM | LOX IMVI > 50 µM | M14 > 50 µM | Malme-3M > 50 µM | NCI-H226 > 50 µM | NCI-H460 > 50 µM | OVCAR-4 > 50 µM | PC-3 > 50 µM | RPMI-8226 > 50 µM | SK-MEL-5 > 50 µM | SK-OV-3 > 50 µM | SNB-19 > 50 µM | SW-620 > 50 µM | U-251 > 50 µM

CCOC(=O)C1(c2ccccc2)CCCNCC1 (centres undefined)
inactive: 786-0 > 100 µM | A549 > 100 µM | CCRF-CEM 28.1 µM | HCC 2998 > 100 µM | HOP-92 75.2 µM | HT-29 77.8 µM | LOX IMVI > 100 µM | M14 > 100 µM | Malme-3M > 100 µM | NCI-H226 > 100 µM | NCI-H460 29 µM | OVCAR-4 > 100 µM | RPMI-8226 88.1 µM | SK-MEL-5 50.7 µM | SK-OV-3 > 100 µM | SNB-19 > 100 µM | SR 33.1 µM | SW-620 > 100 µM | U-251 > 100 µM

O=C(NS(=O)(=O)c1ccccc1)C(Cc1ccccc1)C(Cc1ccccc1)C(=O)NS(=O)(=O)c1ccccc1 (centres undefined)
inactive: 786-0 > 100 µM | A549 > 100 µM | CCRF-CEM > 100 µM | HCC 2998 > 100 µM | HOP-92 > 100 µM | HT-29 > 100 µM | LOX IMVI > 100 µM | M14 > 100 µM | Malme-3M > 100 µM | NCI-H226 62.4 µM | NCI-H460 > 100 µM | OVCAR-4 > 100 µM | RPMI-8226 > 100 µM | SK-MEL-5 > 100 µM | SK-OV-3 > 100 µM | SNB-19 > 100 µM | SR > 100 µM | SW-620 > 100 µM | U-251 > 100 µM

CCN1CC2=C(N=c3s/c(=C\c4ccc(Cl)cc4)c(=O)n3C2c2ccc(Cl)cc2)/C(=C/c2ccc(Cl)cc2)C1 (centres undefined)
inactive: 786-0 10.4 µM | A549 > 100 µM | CCRF-CEM 73.3 µM | HCC 2998 > 100 µM | HT-29 > 100 µM | LOX IMVI > 100 µM | M14 73.1 µM | Malme-3M > 100 µM | NCI-H226 37 µM | NCI-H460 > 100 µM | OVCAR-4 > 100 µM | PC-3 > 100 µM | RPMI-8226 84.9 µM | SK-MEL-5 > 100 µM | SK-OV-3 16.8 µM | SNB-19 44.4 µM | SW-620 > 100 µM | U-251 20.8 µM

CC(=O)/C(=C\C1=CCCO1)C(=O)Nc1ccccc1C
inactive: 786-0 > 100 µM | A549 > 100 µM | CCRF-CEM > 100 µM | HCC 2998 > 100 µM | HOP-92 > 100 µM | HT-29 > 100 µM | LOX IMVI > 100 µM | M14 > 100 µM | Malme-3M > 100 µM | NCI-H226 > 100 µM | NCI-H460 > 100 µM | OVCAR-4 > 100 µM | RPMI-8226 > 100 µM | SK-MEL-5 > 100 µM | SK-OV-3 > 100 µM | SNB-19 > 100 µM | SR > 100 µM | SW-620 > 100 µM | U-251 > 100 µM

CCn1c(CCCc2nc3c(=O)n(C)c(=O)n(C)c3[nH]2)nc2c1c(=O)n(C)c(=O)n2C
inactive: 786-0 > 100 µM | A549 > 100 µM | CCRF-CEM > 100 µM | HCC 2998 > 100 µM | HT-29 > 100 µM | LOX IMVI > 100 µM | M14 > 100 µM | Malme-3M > 100 µM | NCI-H226 14.8 µM | NCI-H460 > 100 µM | OVCAR-4 > 100 µM | PC-3 > 100 µM | RPMI-8226 > 100 µM | SK-MEL-5 14 µM | SK-OV-3 > 100 µM | SNB-19 > 100 µM | SW-620 > 100 µM | U-251 > 100 µM

CCOC(=O)C1C(c2ccco2)C2(C#N)C(=N)OC1(C)C2(C#N)C#N (centres undefined)
inactive: 786-0 > 100 µM | A549 > 100 µM | CCRF-CEM > 100 µM | HCC 2998 > 100 µM | HOP-92 > 100 µM | HT-29 > 100 µM | LOX IMVI > 100 µM | M14 > 100 µM | Malme-3M > 100 µM | NCI-H226 > 100 µM | PC-3 > 100 µM | RPMI-8226 > 100 µM | SK-MEL-5 > 100 µM | SK-OV-3 > 100 µM | SNB-19 > 100 µM | SW-620 > 100 µM | U-251 > 100 µM

Cc1ccc2nc(N/N=C/c3sccc3C)cc(C)c2c1
inactive: 786-0 29.2 µM | A549 83.9 µM | CCRF-CEM > 100 µM | HCC 2998 > 100 µM | HOP-92 35 µM | HT-29 5.48 µM | LOX IMVI > 100 µM | M14 > 100 µM | NCI-H226 > 100 µM | OVCAR-4 34.9 µM | PC-3 35 µM | SK-MEL-5 28.8 µM | SK-OV-3 21.1 µM | SNB-19 48.2 µM | SW-620 > 100 µM | U-251 92.7 µM

CC(C)(C)CC(C)(C)c1ccc(OCCOCC[N+](C)(C)Cc2ccccc2)cc1 [BENZETHONIUM CHLORIDE]
inactive: 786-0 5.01 µM | A549 8.71 µM | CCRF-CEM 1.79 µM | HCC 2998 1.5 µM | HOP-92 1.88 µM | HT-29 1.6 µM | LOX IMVI 1.42 µM | M14 2.08 µM | Malme-3M 1.52 µM | NCI-H226 5.19 µM | NCI-H460 3.05 µM | OVCAR-4 2.06 µM | RPMI-8226 1.29 µM | SK-MEL-5 1.39 µM | SK-OV-3 7.43 µM | SNB-19 3.1 µM | SR 2.03 µM | SW-620 2.69 µM | U-251 1.54 µM

CC(=O)CCn1ncc(Cl)c(Cl)c1=O
inactive: 786-0 20.5 µM | A549 23 µM | CCRF-CEM 21.9 µM | HCC 2998 9.51 µM | HOP-92 17 µM | HT-29 14.1 µM | LOX IMVI 15.6 µM | M14 15.7 µM | Malme-3M 20.7 µM | NCI-H226 16.7 µM | NCI-H460 20.2 µM | OVCAR-4 9.95 µM | RPMI-8226 14.2 µM | SK-MEL-5 19.2 µM | SNB-19 18 µM | SR 9.59 µM | SW-620 19 µM
